{"source": "patent US5037637A", "about": "“Antibacterial antiplaque, anticalculus oral composition” (priority 1989, dated 1991)", "key": {"[1]": {"test": "Human clinical tests, reduction of plaque formation", "type": "in vivo"}, "[2]": {"tested_on": "four dental plaque organisms", "test": "Antibacterial effect on the four dental plaque organisms (summary in words)", "type": "cell-based", "details": "solutions without TCHE", "protocol": "Slurries and solutions described below are prepared to determine effectiveness in terms of minimum inhibitory concentration (MIC) of various antibacterial agents against a variety of oral bacterial organisms implicated in formation of plaque and leading to gingivitis on dental surfaces. Soft plaque contains about 1.7×10^11 organism/gm. (net weight). The antibacterial agents are admixed with anionic materials, particularly anionic surface active agent often commonly employed in oral compositions and polyphosphate anticalculus agent.\nMinimum inhibitory concentration (MIC) of antibacterial agent is used to evaluate the efficacy of the agent in vitro. […] The smaller the MIC value the greater is the efficacy of the antibacterial agent to inhibit the growth of the bacteria. The in vitro MIC data is related to the efficacy of the dentifrice in vivo since retention and release of antibacterial agent into the oral cavity after toothbrushing is in the range of mcg/ml."}, "[3]": {"test": "Adsorption of TCHE to saliva coated tooth mineral hydroxyapatite", "design": "species or system human", "details": "for % of TCHE Adsorbed to Coated HA: 37°, 3 hours", "protocol": "The adsorption to and release from tooth minerals for antiplaque/ antitartar efficacy of agents is assessed by adsorption of antibacterial agent to saliva coated tooth mineral hydroxyapatite in the presence and the absence of pyrophosphate (soluble tetrasodium pyrophosphate)/Gantrez/NaF.\n200 mg. of hydroxyapatite (HA) is treated with human saliva for 2 hours. The excess saliva is washed with a buffer and saliva coated HA is used for adsorption studies. Various concentrations of TCHE in SLS or in SLS/pyrophosphate/Gantrez/NaF are mixed with the coated HA and incubated at 37° for 3 hours under continuous agitation. At the end of incubation period, the mixtures are centrifuged, HA separated and the amounts of TCHE adsorbed determined by estimating TCHE in the supernatant at […] in a Gilford spectrophotometer. The amounts adsorbed are calculated by the difference between the amount added and the amount left in the supernatant after the incubation with coated HA. The table below summarizes the data."}, "Bacteriodes gingivalis": {"tested_on": "Bacteriodes gingivalis", "test": "Antibacterial activity of dentifrice extracts, inhibition of growth", "type": "cell-based", "protocol": "The dentifrice described in Example 3A is compared with the same composition except without any TCHE and with added 0.50 parts of water. Aqueous extracts of each dentifrice are prepared as follows: 50 ml of distilled water is added to 1.0 gm of each dentifrice, mixed well for a couple of hours with stirring bar and centrifuged, after which the supernatant is collected as aqueous extract. Antibacterial activity of the dentifrice extracts are evaluated on Bacteriodes gingivalis."}}, "data": [{"smiles": "CC(C)(C)CC(C)(C)c1ccc(OCCOCC[N+](C)(C)Cc2ccccc2)cc1", "note": "[BTC, benzthonium chloride]", "values": [{"measurement": "reducing plaque formation", "setting": "[1]; 0.075% BTC and 1% pyrophosphate dissolved in water", "value": "is not"}, {"measurement": "reducing plaque formation", "setting": "[1]; 0.075% BTC dissolved in water", "value": "effective in reducing plaque formation"}]}, {"smiles": "CCCCCCCCCCCCOS(=O)(=O)[O-].[Na+]", "note": "[SLS, sodium lauryl sulfate]", "values": [{"measurement": "antibacterial effect", "setting": "[2]", "value": "ineffective"}]}, {"smiles": "[H]/N=C(\\N/C(=N/[H])NCCCCCCNC(=N)NC(=N)Nc1ccc(Cl)cc1)Nc1ccc(Cl)cc1", "note": "[CH, chlorhexidine digluconate]", "values": [{"measurement": "reducing plaque formation", "setting": "[1]; 0.1% CH and 1% sodium N-lauroyl sarcosinate dissolved in water", "value": "is not"}, {"measurement": "reducing plaque formation", "setting": "[1]; 0.1% CH dissolved in water", "value": "effective in reducing plaque formation"}]}, {"smiles": "Oc1cc(Cl)ccc1Oc1ccc(Cl)cc1Cl", "note": "[TCHE, 2,4,4'-trichloro-2'-hydroxydiphenyl ether]", "values": [{"measurement": "% of TCHE Adsorbed to Coated HA", "setting": "[3]; 0.005% TCHE in 1% SLS, 0.5% Gantrez, 2% pyrophosphate/0.24% NaF", "value": 80, "unit": "%"}, {"measurement": "% of TCHE Adsorbed to Coated HA", "setting": "[3]; 0.005% TCHE in 1% SLS", "value": 80, "unit": "%"}, {"measurement": "% of TCHE Adsorbed to Coated HA", "setting": "[3]; 0.01% TCHE in 1% SLS, 0.5% Gantrez, 2% pyrophosphate/0.24% NaF", "value": 85, "unit": "%"}, {"measurement": "% of TCHE Adsorbed to Coated HA", "setting": "[3]; 0.01% TCHE in 1% SLS", "value": 85, "unit": "%"}, {"measurement": "% of TCHE Adsorbed to Coated HA", "setting": "[3]; 0.015% TCHE in 1% SLS, 0.5% Gantrez, 2% pyrophosphate/0.24% NaF", "value": 86, "unit": "%"}, {"measurement": "% of TCHE Adsorbed to Coated HA", "setting": "[3]; 0.015% TCHE in 1% SLS", "value": 85, "unit": "%"}, {"measurement": "% of TCHE Adsorbed to Coated HA", "setting": "[3]; 0.02% TCHE in 1% SLS, 0.5% Gantrez, 2% pyrophosphate/0.24% NaF", "value": 87, "unit": "%"}, {"measurement": "% of TCHE Adsorbed to Coated HA", "setting": "[3]; 0.02% TCHE in 1% SLS", "value": 88, "unit": "%"}, {"measurement": "effect of addition of pyrophosphate/Gantrez/NaF on adsorption of TCHE to saliva coated tooth minerals", "setting": "[3]; with vs without pyrophosphate/Gantrez/NaF", "value": "does not impair adsorption"}, {"measurement": "compatibility in dentifrice composition containing anionic surfactant plus pyrophosphate with Gantrez and NaF", "setting": "Bacteriodes gingivalis; from growth inhibition by dentifrice extracts", "value": "compatible"}, {"measurement": "inhibition at 5 µg/mL", "setting": "Bacteriodes gingivalis; read-out: Inhibition of Growth of Bacteriodes Gingivalis", "value": 100, "unit": "%"}]}]}
